One compound from patent publication US20220048915A1 (SHANGHAI PHARMACEUTICALS HOLDING CO., LTD., priority 2018, published 2022) can be followed below.

pIC50: −log10 of the molar value. Where “and” joins values, the source holds several entries; their conditions need not be identical. Equal entries are not always repeated.

The subject of one data set is BV-2 cells. Kind of data set: Inhibition of inflammation in LPS-stimulated BV-2 cells (ELISA of inflammatory factors). In kind it is cell-based. Conditions: Mus musculus, 100 ng/mL LPS 4 hours. Put shortly: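 BV-2 cells (passage 8) pre-treated 1 h with compound (4-fold dilutions from 10,000 nM, 0.1% DMSO), then stimulated with 100 ng/mL LPS plus compound for 4 h at 37 °C. Supernatant IL-10, TNFα etc. measured by ELISA (OD450); % inhibition vs high/low controls, IC50 by curve fit.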
A general note: An ELISA detects its analyte on a solid surface through an enzyme-linked reagent.

Another data set deals with TNF-α. Kind of data set: Lipopolysaccharide (LPS)-induced inflammation model in mice, TNF-α in serum by ELISA. In kind it is in vivo, C57BL/6J mice. The method, then:
Male SPF-grade C57BL/6J mice, 6-8 weeks old, provided by Shanghai Ling Chang Biotechnology Co., Ltd. Animals were housed in clean-grade plastic cages (light and dark cycle 12/12 hours, temperature 22±2° C., humidity 50±10%, pellet feed, free drinking water).
1. Mice were weighed and administered according to an administration volume of 10 mL/kg, and oral administration by gavage was given for the first time. Each mouse was administrated at an interval of 3 minutes.
2. One hour after the first administration, LPS 5 mpk was administered intraperitoneally at an administration volume of 10 mL/kg.
3. 4 hours after the first administration, a second oral administration by gavage was given according to the administration volume of 10 mL/kg.
4. 6 hours after LPS intraperitoneal injection, mice were sacrificed, serum and cerebral cortex and hippocampus were sampled. After weighing the wet weight and they were put into liquid nitrogen for quick-freezing and storage.

Data set [1] is described as follows: Drug concentration in mice brain. In kind it is in vivo, ICR mice. Conditions: FIG. 1. The method, then: Blood samples were collected from the fundus vein of mice before and at 5, 15, 30, 60, 90, 120, 240, 480 and 1440 minutes of administration, respectively.
2-3 time points were taken for each mouse. The mice were sacrificed at 5, 15, 30, 60 and 1440 minutes after the administration (3 mice per time point), and the brains were taken, rinsed with saline, dried on filter paper and weighed.
Brain tissues were weighed, homogenized in saline (1:4, w/v). 50 μL of homogenized samples were taken, added with 300 μL of acetonitrile containing internal standard (propranolol, 25 ng/mL) to precipitate protein. After vortexing for 10 minutes and centrifuging at 6000 g for 10 minutes, 80 μL of supernatant was taken and placed in a 96-well plate for determination of drug concentration in tissue by UPLC/MS-MS, as shown in Table 2.

For orientation: pIC50 means the negative decadic logarithm of the IC50, by convention in mol/L. For `O=c1ncn2nc(Oc3ccc(F)cc3F)ccc2c1-c1c(Cl)cccc1Cl` [Compound I-4, 5-(2,6-dichlorophenyl)-2-(2,4-difluorophenoxy)-6H-pyrimido[1,6-b]pyridazin-6-one], in the data set with BV-2 cells (read-out: BV-2 Max Inh. (%)), the Emax was found to be 100%. Moreover, the pIC50 with BV-2 cells (read-out: BV-2 Rf IC50) was 8.19. The “anti-inflammatory effect compared with the VX-745_8 mpk group” value in the data set on TNF-α (8 mpk) is recorded as “better anti-inflammatory effect”. For the same compound, the “levels of TNF-α compared with the mouse inflammation model group (G2)” value in the data set with TNF-α (8 mpk, P<0.01) is on record as “significantly reduced”. The TNF-α conc. with TNF-α (serum, individual animals, 8 mg/kg po bid interval 4 h, 6 hours after LPS 5 mpk ip) is 11.9 pg/mL and 127.8 pg/mL and -39.4 pg/mL and 107.7 pg/mL and 92.4 pg/mL and 17.4 pg/mL and 97.1 pg/mL and -37.7 pg/mL and 86.6 pg/mL and 58.6 pg/mL and 89.4 pg/mL and 116.9 pg/mL. Also, the “concentration in mouse brain relative to the positive compound” value in data set [1] (1 h time point) is “more than one time”. Besides, in data set [1] (different time points), the “drug concentration in mice brain compared with the positive compound” value is on record as “significantly higher”.
